Data reported in publication PMC4640066 (Nature Communications, 2015).

Columns and labels:
HeLa cells [1] = experiment: Bipolar spindle establishment after STLC washout; format: cell-based, human; conditions: 30 μM, 2 h after STLC washout
Experimental: To analyse bipolar spindle establishment from monopolar spindles, HeLa cells were arrested at prometaphase with 10 μM of STLC for 15 h. STLC was removed by washing cells with the medium three times. After treatment with 1% DMSO or 30 μM of gatastatin for 2 h, cells were immediately fixed with cold MeOH (−20 °C).
Immunostaining was performed as described above using anti-α-tubulin (1:250 dilution, Santa Cruz, Cat# sc-32293) and anti-pericentrin (1:250 dilution, Abcam, Cat# ab4448) antibodies. Spindle structure was observed under a Leica LAS AF 6000 fluorescence microscope (Leica Microsystems). The measurement of spindle length was performed as described above.

[2] = test system: γ-tubulin-dependent, centrosome-induced aster formation; experiment: Centrosome (sperm nuclei)-induced aster formation in Xenopus egg extracts; format: biochemical; conditions: Xenopus extracts with sperm nuclei, 30 min at 20 °C
Experimental: Cytostatic factor (CSF)-arrested M phase Xenopus egg extracts (CSF extracts) were prepared. Briefly, unfertilized eggs were crushed by 10,700g centrifugation for 20 min. M phase extracts were mixed with 0.5 μM Cy3-labelled α/β-tubulin and various concentrations of compounds. After incubation for 30 min on ice, 15 μM RanQ69L, 200 sperm nuclei per μl or 5% DMSO were added and incubated for 30 min on ice. […]
(a) The efficiency of γ-tubulin depletion in Xenopus extracts was confirmed by immunoblotting. […] The depletion efficiency was calculated with ImageJ and was approx. 80%. […]
Scale bars, 5 μm. […] Aster formation was analyzed by fluorescence microscopy. […] Asters (Fig. 1e and Supplementary Figure 4c) in 10 randomly selected fields were counted per slide with a 10× objective; each sample had four slides. […]
Error bars represent S.D. Two-tailed, paired Student’s t-test was used to obtain P values. […] (e) Quantification of the radius of RanQ69L-induced asters from Fig. 1e and Supplementary Figure 4c. To gauge the impact upon the radius of the asters, n = 20 asters were quantified per sample per experiment. […]

HeLa cells [3] = experiment: Spindle length of MG132-arrested metaphase cells; format: cell-based, human; conditions: 30 μM, 2 h in the presence of MG132, HeLa
Experimental: Exponentially growing HeLa cells were treated with 30 μM of gatastatin for 9 h. Cells were fixed with cold MeOH (−20 °C). Immunostaining was performed as described above using anti-α-tubulin (1:250 dilution, Santa Cruz, Cat# sc-32293) and anti-pericentrin (1:250 dilution, Abcam, Cat# ab4448) antibodies. After staining with Alexa^488-conjugated anti-mouse IgG (1:2,000 dilution, Invitrogen, Cat#A11001) and Alexa^568-conjugated anti-rabbit IgG (1:2,000 dilution, Invitrogen, Cat#A11011), cells were washed four times with PBS and mounted with PBS containing 0.1 μg ml^−1 DAPI. Spindle structure was observed under a Leica LAS AF 6000 fluorescence microscope (Leica Microsystems). Images of 41 sections at 0.251-μm intervals were collected. The position of the two pericentrin signals of mitotic cells was analysed using the ImageJ software, and then their distance was calculated.
For analysis of the length of the bipolar spindle in MG132-treated cells, HeLa cells were arrested at prometaphase with 10 μM of STLC for 15 h, followed by STLC removal by washing the cells with the medium three times to remove STLC. […]
Immunostaining was performed as described above using anti-α-tubulin (1:250 dilution, Santa Cruz, Cat# sc-32293) and anti-pericentrin (1:250 dilution, Abcam, Cat# ab4448) antibodies. Spindle structure was observed under a Leica LAS AF 6000 fluorescence microscope (Leica Microsystems). […]

For `COc1cc2c(=O)c(-c3cc(OC)c4c(c3OC)OCO4)coc2cc1OCc1ccccc1` [Gatastatin, O^7-demethylbenzyl AG1], the “Cells unable to assemble a metaphase-like spindle on STLC washout” value (HeLa cells [1]) was 87%, the “Effect on centrosome-induced aster formation” value [2] was “nearly completely inhibited” and the “Reduction of the length of the metaphase spindle compared with the control” value (HeLa cells [3]) was 22%.
